Experimental data reported in patent publication US20090099192A1, “Substituted 1H-pyrrole-2,5-diones” (Bayer CropScience AG, priority 2004, published 2009).

Assay: logP determination by HPLC on reversed-phase column (C 18), EEC Directive 79/831 Annex V.A8
Type: physicochemical
Settings: reversed-phase C 18, 43° C., acid range (0.1% aqueous phosphoric acid, acetonitrile), marked a)
Protocol: a) The logP values given in table 1 were determined in accordance with EEC Directive 79/831 Annex V.A8 by HPLC (High Performance Liquid Chromatography) on a reversed-phase column (C 18). Temperature: 43° C. (a) Mobile phases for the determination in the acid range: 0.1% aqueous phosphoric acid, acetonitrile; linear gradient from 10% acetonitrile to 90% acetonitrile—corresponding measurement results are marked a) in table 1. Calibration was carried out using unbranched alkan-2-ones (having 3 to 16 carbon atoms) with known logP values (determination of the logP values by the retention times using linear interpolation between two successive alkanones).
For `O=C1C(O)=C(c2ccc(Cl)cc2)C(=O)N1c1ccc(Cl)cc1` [Example 63], the logP was “logP = 3.51^a)”.
With `CCOC(=O)C1(N2C(=O)C(O)=C(c3ccccc3Cl)C2=O)CCCCC1` [Example 167] the logP was “logP = 3.40^a)”.
In the case of `O=C1C(O)=C(c2ccccc2F)C(=O)N1c1cc(Cl)cc(Cl)c1` [Example 73], the logP is reported as “logP = 3.20^a)”.
With `Cc1ccc(-c2ccc(Cl)cc2)cc1C1=C(O)C(=O)N(c2c(Cl)cc(Cl)cc2Cl)C1=O` [Example 127] the logP was “logP = 4.75^a)”.
With `O=C1C(O)=C(c2ccc(C(F)(F)F)cc2)C(=O)N1c1ccc(Cl)cc1` [Example 64] the logP was “logP = 3.35^a)”.
In the case of `Cc1cc(C)c(C2=C(OC(=O)C(C)(C)C(C)C)C(=O)N(C(C)C)C2=O)c(C)c1` [Example 20], the logP is reported as “logP = 5.87^a)”.
For `O=C1C(O)=C(c2ccc(OC(F)(F)F)cc2)C(=O)N1c1cc(Cl)cc(Cl)c1` [Example 76], the logP was “logP = 4.15^a)”.
In the case of `Cc1ccc(-c2ccc(Cl)cc2)cc1C1=C(O)C(=O)N(Cc2ccccc2OC(F)(F)F)C1=O` [Example 133], the logP is reported as “logP = 4.75^a)”.
With `CC1CCCC(N2C(=O)C(O)=C(c3ccccc3Br)C2=O)C1` (stereo not shown) [Example 163] the logP was “logP = 3.61^a)”.
For `O=C1C(O)=C(c2cc(Cl)cc(Cl)c2)C(=O)N1Cc1ccc(OC(F)(F)F)cc1` [Example 91], the logP was “logP = 4.12^a)”.
In the case of `N#Cc1ccc(C2=C(O)C(=O)N(c3ccc(C(F)(F)F)cc3F)C2=O)cc1` [Example 144], the logP is reported as “logP = 6.09^a)”.
In the case of `O=C1C(O)=C(c2ccc(C(F)(F)F)cc2)C(=O)N1CCC(F)(F)F` [Example 47], the logP is reported as “logP = 3.06^a)”.
With `Cc1ccc(-c2ccc(Cl)cc2)cc1C1=C(O)C(=O)N(C(C)c2ccccc2Cl)C1=O` (racemic) [Example 136] the logP was “logP = 4.75^a)”.
In the case of `O=C1C(O)=C(c2ccc(C(F)(F)F)cc2)C(=O)N1Cc1ccccc1F` [Example 100], the logP is reported as “logP = 3.40^a)”.
For `Cc1cc(C)c(C2=C(O)C(=O)N(Cc3ccc(OC(F)(F)F)cc3)C2=O)c(C)c1` [Example 81], the logP was “logP = 4.24^a)”.
For `Cc1ccc(-c2ccc(Cl)cc2)cc1C1=C(O)C(=O)N(Cc2ccc(Cl)cc2Cl)C1=O` [Example 121], the logP was “logP = 5.03^a)”.
In the case of `Cc1ccc(-c2ccc(Cl)cc2)cc1C1=C(O)C(=O)N(C(C)(C)c2ccccc2Cl)C1=O` [Example 142], the logP is reported as “logP = 4.80^a)”.
In the case of `O=C1C(O)=C(c2ccccc2F)C(=O)N1c1ccc(C(F)(F)F)cc1` [Example 67], the logP is reported as “logP = 3.01^a)”.
For `O=C1C(O)=C(c2cc(Cl)cc(Cl)c2)C(=O)N1c1ccc(OC(F)(F)F)cc1` [Example 57], the logP was “logP = 3.56^a)”.
For `O=C1C(O)=C(c2ccc(C(F)(F)F)cc2)C(=O)N1c1cc(Cl)cc(Cl)c1` [Example 79], the logP was “logP = 3.75^a)”.
For `CC(C)(C)C(=O)OC1=C(c2ccccc2Cl)C(=O)N(C2CCCCC2)C1=O` [Example 23], the logP was “logP = 5.39^a)”.
In the case of `Cc1ccc(-c2ccc(Cl)cc2)cc1C1=C(O)C(=O)N(Cc2cccc(Cl)c2)C1=O` [Example 123], the logP is reported as “logP = 4.61^a)”.
In the case of `CCCCOC1CCCC(N2C(=O)C(O)=C(c3ccccc3Cl)C2=O)C1` (stereo not shown) [Example 152], the logP is reported as “logP = 3.70^a)”.
For `CC1(C)CC(N2C(=O)C(O)=C(c3ccccc3Cl)C2=O)CC(C)(C)C1` [Example 160], the logP was “logP = 4.41^a)”.
With `Cc1ccc(C2=C(O)C(=O)N(Cc3cc(Cl)cc(Cl)c3)C2=O)cc1` [Example 119] the logP was “logp = 4.42^a)”.
With `O=C1C(O)=C(c2c(F)cccc2F)C(=O)N1c1ccc(OC(F)(F)F)cc1` [Example 50] the logP was “logP = 2.80^a)”.
With `CCCCOC1CCCC(N2C(=O)C(O)=C(c3ccccc3Cl)C2=O)C1` (stereo not shown) [Example 153] the logP was “logP = 4.09^a)”.
In the case of `O=C1C(O)=C(c2ccccc2Cl)C(=O)N1c1ccc(Cl)cc1` [Example 60], the logP is reported as “logP = 2.89^a)”.
With `O=C1C(O)=C(c2ccccc2Cl)C(=O)N1c1ccccc1C(F)(F)F` [Example 25] the logP was “logP = 2.60^a)”.
For `O=C1C(O)=C(c2cccc(C(F)(F)F)c2)C(=O)N1c1ccc(OC(F)(F)F)cc1` [Example 53], the logP was “logP = 3.75^a)”.
With `N#Cc1ccc(C2=C(O)C(=O)N(Cc3ccccc3F)C2=O)cc1` [Example 98] the logP was “logP = 2.31^a)”.
